Data from article PMC9182007, “Statistical Methods in the Study of Protein Binding and Its Relationship to Drug Bioavailability in Breast Milk” (Molecules, 2022).
Like-named read-outs stand apart in the source and are kept apart here.

Experiments:
[1] = target: T1, bovine serum albumin (BSA) (Bos taurus, UniProt P02769); experiment: NP TLC on plates impregnated with bovine serum albumin; format: binding; conditions: for NP (Rf, BSA-impregnated NP plate): Table S3, NP plate impregnated with 2 mg/mL BSA, pH 7.4 mobile phase
T1 construct: purchased Sigma Aldrich

[2] = target: T1, bovine serum albumin (BSA); experiment: RP TLC on plates impregnated with bovine serum albumin; format: binding; conditions: Table S4, RP plate impregnated with 2 mg/mL BSA; pH 7.4 mobile phase
Description: Chromatographic descriptors were obtained in experiments, thin layer chromatography in normal (NP TLC) and reversed mode (RP TLC). The stationary phase was modified with bovine serum albumin (BSA). TLC was the source of retention factor (Rf) values, denoted in statistical models as NP and RP.
For TLC chromatography, glass plates 20 × 20 cm from Merck, covered with silica gel with the addition of a fluorescent indicator, were used. Normal phase (NP) plates were used with standard Merck TLC Silica gel 60 F254 plates, while in reverse phase (RP) silanized plates RP-2: Merck TLC Silica gel 60 RP-2 F254 were used.
The stationary phase of the plates, both NP and RP, was modified with an aqueous solution of bovine serum albumin purchased from Sigma Aldrich (bovine serum albumin, lyophilized powder).
The impregnation of the plates was carried out with a 2 mg/mL solution applied to the surface using a Desaga SG 1 hand sprayer; the plates were then air dried. […] Normal and reversed phase thin layer chromatography (NP TLC and RP TLC respectively) was performed using silica-gel-coated glass plates. Half of them were covered with 2 mg/mL bovine serum albumin solution and half remained pure.
The mobility of the compounds was also determined on the plates with no protein as a modifier. […] The acetate buffer (20 mM) was prepared by dissolving 1.54 g of ammonium acetate in 1 L of distilled water. The pH was then adjusted with a concentrated ammonia solution using a pH meter. The plates were developed in standard, vertical chromatographic chambers, each time using 100 mL of the mobile phase, after the chamber was previously saturated with solvent vapors for approximately 1 h.
The unfolded-protein-impregnated plates and the control plates were scanned with a Desaga CD 60 densitometer. The values of the delay factor (Rf) were collected, i.e., the ratio of the distance traveled by the substance to be analyzed to the distance traveled through the front of the mobile phase. […] The experiment was repeated (for both BSA-coated and control plates) and the Rf values pooled are the mean of both series of experiments.

[3] = NP TLC on non-impregnated control plates; format: physicochemical; conditions: for CNP (Rf, control NP plate): Table S3, non-impregnated NP plate, acetonitrile/acetate buffer pH 7.4/methanol 60:20:20
[4] = RP TLC on non-impregnated control plates; format: physicochemical; conditions: Table S4, non-impregnated RP plate; acetonitrile/acetate buffer pH 7.4/methanol 60:20:20
[5] = HPLC on immobilized artificial membrane column (HPLCIAM); format: physicochemical; conditions: for log k IAM: Table S5, IAM column, pH 7.4; for k IAM: Table S5, retention factor, IAM column, phosphate buffer pH 7.4/acetonitrile 80:20; for kIAM / log kIAM: Table S9, external group
[6] = target: T2, human serum albumin (HSA) (Homo sapiens, UniProt P02768)
Protocol: (§1) High performance liquid chromatography was performed using immobilized human serum albumin column (HPLCHSA) and immobilized artificial membrane (HPLCIAM). HPLC was the source of the log k values (logarithm of retention factor), log kHSA and log kIAM.
(§2) High performance liquid chromatography was performed using a chromatography column with immobilized human serum albumin. The assay was performed on a Perkin Elmer Series 200 instrument connected to a UV-VIS spectrometer as detector. The analytical wavelength was the same for all compounds at 210 nm. […] The acetate buffer was prepared by dissolving 0.77 g of ammonium acetate in 1 L of distilled water. The pH was then adjusted with a concentrated ammonia solution using a pH meter.
(§3) The phase flow through the system was set to 0.9 mL/min as recommended by the column manufacturer. The solutions were delivered to the column using an autosampler syringe, the injection size was 10 µL. Since the column could not be thermostated, the room was kept at a constant temperature of 25 degrees Celsius.
(§4) Chromatographic data (retention coefficient, k, and derivative, log k) were obtained with TotalChrom software connected to an HPLC instrument. […] The experiment was then repeated and the collected retention rates were the mean values of both series.

[7] = target: T2, human serum albumin (HSA); experiment: in vitro; conditions: immobilized hsa column, pH 7.4
Protocol: as §1, §2, §3, §4

[8] = system: plasma protein; conditions: ref DrugBank [7], cited from earlier work
[9] = Table S1, coded 1/0; ref DrugBank [7]; cited from earlier work
[10] = Table S5, retention factor, HSA column, pH 7.4, 25 degrees Celsius
[11] = Table S1, plasma protein binding given as fraction
[12] = Table S6, external group (n = 38), given as fraction

T1 sequence (P02769 25-607): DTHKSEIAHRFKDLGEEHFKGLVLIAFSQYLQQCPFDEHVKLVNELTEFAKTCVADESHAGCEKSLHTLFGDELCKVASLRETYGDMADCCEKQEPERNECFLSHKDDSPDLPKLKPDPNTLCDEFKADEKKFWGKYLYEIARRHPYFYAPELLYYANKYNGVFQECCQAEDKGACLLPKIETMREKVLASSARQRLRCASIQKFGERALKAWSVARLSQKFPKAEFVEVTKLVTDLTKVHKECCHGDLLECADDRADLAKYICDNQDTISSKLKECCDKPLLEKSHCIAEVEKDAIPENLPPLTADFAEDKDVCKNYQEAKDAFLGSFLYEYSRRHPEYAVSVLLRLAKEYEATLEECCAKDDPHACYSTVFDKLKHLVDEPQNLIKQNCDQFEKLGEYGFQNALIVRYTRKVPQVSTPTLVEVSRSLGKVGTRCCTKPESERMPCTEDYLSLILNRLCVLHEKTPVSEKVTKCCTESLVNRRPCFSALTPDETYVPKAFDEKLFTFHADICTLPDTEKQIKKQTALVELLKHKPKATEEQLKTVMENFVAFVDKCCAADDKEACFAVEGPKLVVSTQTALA
T2 sequence (P02768 25-609): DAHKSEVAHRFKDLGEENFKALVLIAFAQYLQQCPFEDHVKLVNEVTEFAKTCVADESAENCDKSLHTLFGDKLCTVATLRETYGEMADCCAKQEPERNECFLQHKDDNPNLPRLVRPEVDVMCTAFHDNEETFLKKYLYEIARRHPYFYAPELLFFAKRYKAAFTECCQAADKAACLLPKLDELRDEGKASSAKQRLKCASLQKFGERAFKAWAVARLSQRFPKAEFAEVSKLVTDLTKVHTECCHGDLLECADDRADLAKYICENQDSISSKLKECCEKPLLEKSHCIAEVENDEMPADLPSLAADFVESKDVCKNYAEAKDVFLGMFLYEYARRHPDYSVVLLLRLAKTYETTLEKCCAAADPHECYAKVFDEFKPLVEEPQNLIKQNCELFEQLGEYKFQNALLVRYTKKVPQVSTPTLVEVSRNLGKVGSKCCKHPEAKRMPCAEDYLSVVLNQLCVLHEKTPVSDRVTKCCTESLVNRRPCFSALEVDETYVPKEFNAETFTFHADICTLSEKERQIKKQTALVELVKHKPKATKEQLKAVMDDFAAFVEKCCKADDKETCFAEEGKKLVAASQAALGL

CC[C@H]1OC(=O)[C@H](C)[C@@H](O[C@H]2C[C@@](C)(OC)[C@@H](O)[C@H](C)O2)[C@H](C)[C@@H](O[C@@H]2O[C@H](C)C[C@H](N(C)C)[C@H]2O)[C@](C)(O)C[C@@H](C)CN(C)[C@H](C)[C@@H](O)[C@]1(C)O [azithromycin]
NP (Rf, BSA-impregnated NP plate) [1]: 0.63
RP (Rf, BSA-impregnated RP plate) [2]: 0.24
CNP (Rf, control NP plate) [3]: 0.63
CRP (Rf, control RP plate) [4]: 0.24
log k IAM [5]: -1.20
k IAM [5]: 0.06
k HSA [6, 10]: 0.23
chromatographic logD [7]: -0.64
PB [8, 11]: 0.29
CNS+/- [9]: 0

CCOCCn1c(C2CCN(CCc3ccc(C(C)(C)C(=O)O)cc3)CC2)nc2ccccc21 [bilastine]
NP (Rf, BSA-impregnated NP plate) [1]: 0.44
RP (Rf, BSA-impregnated RP plate) [2]: 0.72
CNP (Rf, control NP plate) [3]: 0.46
CRP (Rf, control RP plate) [4]: 0.76
log k IAM [5]: -0.26
k IAM [5]: 0.55
k HSA [6, 10]: 0.67
chromatographic logD [7]: -0.17
PB [8, 11]: 0.87

O=C1CN=C(c2ccccn2)c2cc(Br)ccc2N1 [bromazepam]
NP (Rf, BSA-impregnated NP plate) [1]: 0.90
RP (Rf, BSA-impregnated RP plate) [2]: 0.81
CNP (Rf, control NP plate) [3]: 0.87
CRP (Rf, control RP plate) [4]: 0.83
log k IAM [5]: 0.34
k IAM [5]: 2.21
k HSA ([6]; pH 7.4): 0.63
chromatographic logD [7]: -0.2
PB [8, 11]: 0.7
CNS+/- [9]: 1

COc1ccccc1OCCNCC(O)COc1cccc2[nH]c3ccccc3c12 (stereo not drawn) [carvedilol]
NP (Rf, BSA-impregnated NP plate) [1]: 0.9
CNP (Rf, control NP plate) [3]: 0.73
k HSA [6, 10]: 14.5
chromatographic logD [7]: 1.16
PB [8, 11]: 0.98
CNS+/- [9]: 0

CO/N=C(\C(=O)N[C@@H]1C(=O)N2C(C(=O)O)=C(COC(N)=O)CS[C@H]12)c1ccco1 [cefuroxime]
NP (Rf, BSA-impregnated NP plate) [1]: 0.98
RP (Rf, BSA-impregnated RP plate) [2]: 0.87
CNP (Rf, control NP plate) [3]: 0.97
CRP (Rf, control RP plate) [4]: 0.88
log k IAM [5]: 0.23
k IAM [5]: 1.69
k HSA [6, 10]: 0.23
chromatographic logD [7]: -0.64
PB [8, 11]: 0.5
CNS+/- [9]: 0

CCN(CC)C(=O)Nc1ccc(OCC(O)CNC(C)(C)C)c(C(C)=O)c1 (stereo not drawn) [celiprolol]
NP (Rf, BSA-impregnated NP plate) [1]: 0.46
RP (Rf, BSA-impregnated RP plate) [2]: 0.79
CNP (Rf, control NP plate) [3]: 0.45
CRP (Rf, control RP plate) [4]: 0.75
log k IAM [5]: 0.77
k IAM [5]: 5.87
k HSA [6, 10]: 1.12
chromatographic logD [7]: 0.05
PB [8, 11]: 0.275

CN1CCN(C2=Nc3cc(Cl)ccc3Nc3ccccc32)CC1 [clozapine]
NP (Rf, BSA-impregnated NP plate) [1]: 0.46
CNP (Rf, control NP plate) [3]: 0.45
log k IAM [5]: 1.71
k IAM [5]: 50.94
k HSA [6, 10]: 6.84
chromatographic logD [7]: 0.84

CN1CCC(=C2c3ccccc3C=Cc3ccccc32)CC1 [cyproheptadine]
NP (Rf, BSA-impregnated NP plate) [1]: 0.43
RP (Rf, BSA-impregnated RP plate) [2]: 0.47
CNP (Rf, control NP plate) [3]: 0.45
CRP (Rf, control RP plate) [4]: 0.45
log k IAM [5]: 1.38
k IAM [5]: 23.79
k HSA [6, 10]: 9.7
chromatographic logD [7]: 0.99
PB [8, 11]: 0.975
CNS+/- [9]: 1

CN1C[C@H](C(=O)N[C@]2(C)O[C@@]3(O)[C@@H]4CCCN4C(=O)[C@H](Cc4ccccc4)N3C2=O)C[C@@H]2c3cccc4[nH]cc(c34)C[C@H]21 [dihydroergotamine]
NP (Rf, BSA-impregnated NP plate) [1]: 0.75
RP (Rf, BSA-impregnated RP plate) [2]: 0.78
CNP (Rf, control NP plate) [3]: 0.72
CRP (Rf, control RP plate) [4]: 0.78
k HSA ([6]; pH 7.4): 0.23
chromatographic logD [7]: -0.64
PB [8, 11]: 0.93
CNS+/- [9]: 0

CNCC[C@H](Oc1cccc2ccccc12)c1cccs1 [duloxetine]
kIAM [5]: 2.84
log kIAM [5]: 0.45
kHSA [6]: 8.16
chromatographic logD [7]: 0.91
PB [8, 12]: 0.90

COC(=O)[C@@H]1CC2=CC(=O)CC[C@]2(C)[C@@]23O[C@@H]2C[C@@]2(C)[C@@H](CC[C@@]24CCC(=O)O4)[C@H]13 [eplerenone]
NP (Rf, BSA-impregnated NP plate) [1]: 0.94
RP (Rf, BSA-impregnated RP plate) [2]: 0.85
CNP (Rf, control NP plate) [3]: 0.94
CRP (Rf, control RP plate) [4]: 0.84
log k IAM [5]: 0.19
k IAM [5]: 1.54
k HSA [6, 10]: 0.21
chromatographic logD [7]: -0.68
PB [8, 11]: 0.5
CNS+/- [9]: 1

NC(N)=Nc1nc(CSCCC(N)=NS(N)(=O)=O)cs1 [famotidine]
NP (Rf, BSA-impregnated NP plate) [1]: 0.71
RP (Rf, BSA-impregnated RP plate) [2]: 0.99
CNP (Rf, control NP plate) [3]: 0.70
CRP (Rf, control RP plate) [4]: 0.98
k HSA [6, 10]: 0.99
chromatographic logD [7]: 0

NCC1(CC(=O)O)CCCCC1 [gabapentin]
kIAM [5]: 1.70
log kIAM [5]: 0.23
kHSA [6]: 0.15
chromatographic logD [7]: -0.84
PB [8, 12]: 0.03

Cc1ccc(S(=O)(=O)NC(=O)NN2CC3CCCC3C2)cc1 (stereo not drawn) [gliclazide]
NP (Rf, BSA-impregnated NP plate) [1]: 0.95
RP (Rf, BSA-impregnated RP plate) [2]: 0.80
CNP (Rf, control NP plate) [3]: 0.95
CRP (Rf, control RP plate) [4]: 0.83
log k IAM [5]: -0.55
k IAM [5]: 0.28
k HSA [6, 10]: 9.69
chromatographic logD [7]: 0.99
PB [8, 11]: 0.94
CNS+/- [9]: 1

CC(=O)OCC(=O)[C@@]1(O)CC[C@H]2[C@@H]3CCC4=CC(=O)CC[C@]4(C)[C@H]3[C@@H](O)C[C@@]21C [hydrocortisone acetate]
NP (Rf, BSA-impregnated NP plate) [1]: 0.96
CNP (Rf, control NP plate) [3]: 0.96
log k IAM [5]: 0.45
k IAM [5]: 2.82
k HSA [6, 10]: 0.66
chromatographic logD [7]: -0.18
PB [8, 11]: 0.95

CN(C)C(=O)C(CCN1CCC(O)(c2ccc(Cl)cc2)CC1)(c1ccccc1)c1ccccc1 [loperamide]
NP (Rf, BSA-impregnated NP plate) [1]: 0.67
RP (Rf, BSA-impregnated RP plate) [2]: 0.77
CNP (Rf, control NP plate) [3]: 0.68
CRP (Rf, control RP plate) [4]: 0.75
k HSA ([6]; pH 7.4): 4.47
chromatographic logD [7]: 0.65

CN1CCN=C(c2ccccc2)c2cc(Cl)ccc21 [medazepam]
NP (Rf, BSA-impregnated NP plate) [1]: 0.94
RP (Rf, BSA-impregnated RP plate) [2]: 0.65
CNP (Rf, control NP plate) [3]: 0.91
CRP (Rf, control RP plate) [4]: 0.66
log k IAM [5]: 1.54
k IAM [5]: 34.65
k HSA ([6]; pH 7.4): 17.86
chromatographic logD [7]: 1.25

OC(CNCC(O)C1CCc2cc(F)ccc2O1)C1CCc2cc(F)ccc2O1 (stereo not drawn) [nebivolol]
NP (Rf, BSA-impregnated NP plate) [1]: 0.75
RP (Rf, BSA-impregnated RP plate) [2]: 0.40
CNP (Rf, control NP plate) [3]: 0.75
CRP (Rf, control RP plate) [4]: 0.40
k HSA [6, 10]: 7.49
chromatographic logD [7]: 0.87
PB [8, 11]: 0.98
CNS+/- [9]: 1

CC(C)NCC(O)COc1cccc2[nH]ccc12 (stereo not drawn) [pindolol]
NP (Rf, BSA-impregnated NP plate) [1]: 0.52
CNP (Rf, control NP plate) [3]: 0.53
log k IAM [5]: 0.78
k IAM [5]: 6.09
k HSA [6, 10]: 1.65
chromatographic logD [7]: 0.22
PB [8, 11]: 0.4

CC(C)C[C@H](CN)CC(=O)O [pregabalin]
kIAM [5]: 1.65
log kIAM [5]: 0.22
kHSA [6]: 0.14
chromatographic logD [7]: -0.87
PB [8, 12]: 0.00

CC(C)c1nc(N(C)S(C)(=O)=O)nc(-c2ccc(F)cc2)c1/C=C/[C@@H](O)C[C@@H](O)CC(=O)O [rosuvastatin]
NP (Rf, BSA-impregnated NP plate) [1]: 0.89
RP (Rf, BSA-impregnated RP plate) [2]: 0.88
CNP (Rf, control NP plate) [3]: 0.9
CRP (Rf, control RP plate) [4]: 0.92
log k IAM [5]: -0.02
k IAM [5]: 0.96
k HSA [6, 10]: 1.96
chromatographic logD [7]: 0.29
CNS+/- [9]: 0

Cc1cncc(CN2CCC(=C3c4ccc(Cl)cc4CCc4cccnc43)CC2)c1 [rupatadine]
NP (Rf, BSA-impregnated NP plate) [1]: 0.43
RP (Rf, BSA-impregnated RP plate) [2]: 0.52
CNP (Rf, control NP plate) [3]: 0.42
CRP (Rf, control RP plate) [4]: 0.55
log k IAM [5]: 0.97
k IAM [5]: 9.29
k HSA [6, 10]: 12.38
chromatographic logD [7]: 1.09
PB [8, 11]: 0.985

CC(=O)S[C@@H]1CC2=CC(=O)CC[C@]2(C)[C@H]2CC[C@@]3(C)[C@@H](CC[C@@]34CCC(=O)O4)[C@H]12 [spironolactone]
NP (Rf, BSA-impregnated NP plate) [1]: 0.96
RP (Rf, BSA-impregnated RP plate) [2]: 0.77
CNP (Rf, control NP plate) [3]: 0.98
CRP (Rf, control RP plate) [4]: 0.78
log k IAM [5]: 1.13
k IAM [5]: 13.38
k HSA [6, 10]: 0.82
chromatographic logD [7]: -0.09
PB [8, 11]: 0.9

CCS(=O)(=O)CCn1c([N+](=O)[O-])cnc1C [tinidazole]
NP (Rf value from the NP plate impregnated with 2 mg/mL BSA solution) ([1]; Table S8, external group): 0.88
CNP (Rf value from the non-impregnated NP plate, control) ([3]; Table S8, external group): 0.89
kIAM [5]: 2.00
log kIAM [5]: 0.30
kHSA ([6]; Table S9, external group): 0.12
chromatographic logD [7]: -0.92
PB [8, 12]: 0.12

Cc1ccc(O)c([C@H](CCN(C(C)C)C(C)C)c2ccccc2)c1 [tolterodine]
log k IAM [5]: -0.68
k IAM [5]: 0.21
k HSA ([6]; pH 7.4): 2.9
chromatographic logD [7]: 0.46

COc1ccc(C(CN(C)C)C2(O)CCCCC2)cc1 (stereo not drawn) [venlafaxine]
log k IAM [5]: 0.92
k IAM [5]: 8.25
k HSA ([6]; pH 7.4): 1.05
chromatographic logD [7]: 0.02
PB [8, 11]: 0.27
